pIC50: −log10 of the molar value. Values joined by “and” are separate entries in the source; they are usually repeats but may differ in a detail not shown here. Identical values can stand only once. “Also recorded” adds a separate entry of the source. Strand notation (5' to 3'): a small letter for the sugar, then the base; units joined by * are phosphorothioate-linked, units joined directly phosphodiester-linked; [ ] holds rarer units or linkages, { } end groups; capitals alone tell only the bases. d = 2'-deoxy (DNA); m = 2'-O-methyl
Tests used:
[1] = system: codon-12 point mutation of mutant (activated) H-ras RNA; type: cell-based, human
[2] = system: ras mRNA; test: Northern blot analysis of ras expression in T24 cells; type: cell-based, human; parameters: inhibition of ras expression / decrease of ras mRNA: concentration or dose not given beside the values; details: for inhibition of ras expression in T24 cells: result in words
Experimental: (§1) The human urinary bladder cancer cell line T24 was obtained from the American Type Culture Collection (Rockville Md.). Cells were grown in McCoy's 5A medium with L-glutamine (GIBCO-BRL, Gaithersburg, Md.), supplemented with 10% heat-inactivated fetal calf serum and 50 U/ml each of penicillin and streptomycin. Cells were seeded on 100 mm plates. When they reached 70% confluency, they were treated with oligonucleotide. Plates were washed with 10 ml prewarmed PBS and 5 ml of OptiMEM (GIBCO) reduced-serum medium containing 2.5 μl DOTMA. Oligonucleotide was then added to the desired concentration. After 4 hours of treatment, the medium was replaced with McCoy's medium. Cells were harvested 48 hours after oligonucleotide treatment and RNA was isolated using a standard CsCl purification method. [Kingston in Current Protocols in Molecular Biology, F. M. Ausubel, R. Brent, R. E. Kingston, D. D. Moore, J. A. Smith, J. G. Seidman and K. Strahl, Eds., John Wiley and Sons, New York.] The human epithelioid carcinoma cell line HeLa 229 was obtained from the American Type Culture Collection (Bethesda, Md.). HeLa cells were maintained as monolayers on 6-well plates in Dulbecco's Modified Eagle's medium (DMEM) supplemented with 10 fetal bovine serum and 100 U/ml penicillin. Treatment with oligonucleotide and isolation of RNA were essentially as described above for T24 cells.
Northern hybridization: 10 μg of each RNA was electrophoresed on a 1.2% agarose/formaldehyde gel and transferred overnight to GeneBind 45 nylon membrane (Pharmacia LKB, Piscataway, N.J.) using standard methods. [Kingston in Current Protocols in Molecular Biology, F. M. Ausubel, R. Brent, R. E. Kingston, D. D. Moore, J. A. Smith, J. G. Seidman and K. Strahl, Eds., John Wiley and Sons, New York.] RNA was UV-crosslinked to the membrane. Double-stranded ^32P-labeled probes were synthesized using the Prime a Gene labeling kit (Promega, Madison Wis.). The ras probe was a SalI-NheI fragment of a cDNA clone of the activated (mutant) H-ras mRNA having a GGC-to-GTC mutation at codon-12. The control probe was G3PDH. Blots were prehybridized for 15 minutes at 68° C. with the QuickHyb hybridization solution (Stratagene, La Jolla, Calif.). The heat-denatured radioactive probe (2.5×10^6 counts/2 ml hybridization solution) mixed with 100 μl of 10 mg/ml salmon sperm DNA was added and the membrane was hybridized for 1 hour at 68° C. The blots were washed twice for 15 minutes at room temperature in 2×SSC/0.1% SDS and once for 30 minutes at 60° C. with 0.1×SSC/0.1%SDS. Blots were autoradiographed and the intensity of signal was quantitated using an ImageQuant PhosphorImager (Molecular Dynamics, Sunnyvale, Calif.). Northern blots were first hybridized with the ras probe, then stripped by boiling for 15 minutes in 0.1×SSC/0.1%SDS and rehybridized with the control G3PDH probe to check for correct sample loading.

[3] = system: T24 cancer cell proliferation; test: Inhibition of proliferation of cancer cells; type: cell-based, human; details: for inhibition of cell proliferation / pIC50: T24 cells; for pIC50: dose-response study
Experimental: Cells were cultured and treated with oligonucleotide essentially as described in Example 27. Cells were seeded on 60 mm plates and were treated with oligonucleotide in the presence of DOTMA when they reached 70% confluency. Time course experiment: On day 1, cells were treated with a single dose of oligonucleotide at a final concentration of 100 nM. The growth medium was changed once on day 3 and cells were counted every day for 5 days, using a counting chamber. Dose-response experiment: Various concentrations of oligonucleotide (10, 25, 50, 100 or 250 nM) were added to the cells and cells were harvested and counted 3 days later. Oligonucleotides 2570, 3985 and 4690 were tested for effects on T24 cancer cell proliferation.

[4] = system: c-raf mRNA; test: Northern blot analysis of inhibition of c-raf mRNA expression in T24 cells; type: cell-based, human
From the text: Chimeric oligonucleotides having SEQ ID NO: 7 were designed using the Genbank c-raf sequence HUMRAFR (Genbank listing x03484), synthesized and tested for inhibition of c-raf mRNA expression in T24 bladder carcinoma cells using a Northern blot assay. These chimeric oligonucleotides have central “gap” regions of 6, 8 or 10 deoxynucleotides flanked by two regions of 2′-O-methyl modified nucleotides, and are shown in Table 10. Backbones were uniformly phosphorothioate. […] These oligonucleotides are preferred.
The human urinary bladder cancer cell line T24 was obtained from the American Type Culture Collection (Rockville, Md.). Cells were grown in McCoy's 5A medium with L-glutamine (GIBCO-BRL, Gaithersburg, Md.), supplemented with 10% heat-inactivated fetal calf serum and 50 U/ml each of penicillin and streptomycin. Cells were seeded on 100 mm plates. When they reached 70% confluency, they were treated with oligonucleotide. Plates were washed with 10 ml prewarmed PBS and 5 ml of OptiMEM reduced-serum medium containing 2.5 μl DOTMA. Oligonucleotide with lipofectin was then added to the desired concentration. After 4 hours of treatment, the medium was replaced with McCoy's medium. Cells were harvested 24 to 72 hours after oligonucleotide treatment and RNA was isolated using a standard CsCl purification method. [Kingston in Current Protocols in Molecular Biology, F. M. Ausubel, R. Brent, R. E. Kingston, D. D. Moore, J. A. Smith, J. G. Seidman and K. Strahl, Eds., John Wiley and Sons, New York.] Total RNA was isolated by centrifugation of cell lysates over a CsCl cushion. RNA samples were electrophoresed through 1.2% agarose-formaldehyde gels and transferred to hybridization membranes by capillary diffusion over a 12-14 hour period. The RNA was cross-linked to the membrane by exposure to UV light in a Stratalinker (Stratagene, La Jolla, Calif.) and hybridized to random-primed ^32P-labeled c-raf cDNA probe (obtained from ATCC) or G3PDH probe as a control. RNA was quantitated using a Phosphorimager (Molecular Dynamics, Sunnyvale, Calif.).

[5] = system: 25 mer oligoribonucleotide complement; test: Melting curves of 2′-modified 17-mers with 7-deoxy gap; type: binding; details: 17-mer with 7-deoxy gap hybridized with 25 mer oligoribonucleotide complement
From the text: This is attributed to these phosphodiester compounds being substrates for nucleases that degrade such phosphodiester compounds thus preventing them potentially activating RNase H. Other sugar modifications: The effects of other 2′ sugar modifications besides 2′-O-methyl on antisense activity in chimeric oligonucleotides have been examined. These modifications are listed in Table 4, along with the Tm values obtained when 17 mer oligonucleotides having 2′-modified nucleotides flanking a 7-base deoxy gap were hybridized with a 25 mer oligoribonucleotide complement as described in Example 25. […] As alkyl length increased, Tm decreased.
Absorbance vs. temperature curves were measured at 260 nm using a Gilford 260 spectrophotometer interfaced to an IBM PC computer and a Gilford Response II spectrophotometer. The buffer contained 100 mM Na^+, 10 mM phosphate and 0.1 mM EDTA, pH 7. Oligonucleotide concentration was 4 μM each strand determined from the absorbance at 85° C. and extinction coefficients calculated according to Puglisi and Tinoco [Methods in Enzymol., 180, 304 (1989). Tm values, free energies of duplex formation and association constants were obtained from fits of data to a two state model with linear sloping baselines. [Petersheim and Turner, Biochemistry, 22, 256 (1983). Reported parameters are averages of at least three experiments. For some oligonucleotides, free energies of duplex formation were also obtained from plots of Tm^−1 vs log10 (concentration). Borer et al., J. Mol. Biol., 86, 843 (1974).

[6] = system: H-ras; test: ras transactivation reporter gene assay; type: cell-based; details: antisense activity against H-ras, 17-mer with 7-deoxy gap
From the text: The expression plasmid pSV2-oli, containing an activated (codon 12, GGC→GTC) H-ras cDNA insert under control of the constitutive SV40 promoter, was a gift from Dr. Bruno Tocque (Rhone-Poulenc Sante, Vitry, France). This plasmid was used as a template to construct, by PCR, a H-ras expression plasmid under regulation of the steroid-inducible mouse mammary tumor virus (MMTV) promoter. To obtain H-ras coding sequences, the 570 bp coding region of the H-ras gene was amplified by PCR. The PCR primers were designed with unique restriction endonuclease sites in their 5′-regions to facilitate cloning. The PCR product containing the coding region of the H-ras codon 12 mutant oncogene was gel purified, digested, and gel purified once again prior to cloning. This construction was completed by cloning the insert into the expression plasmid pMAMneo (Clontech Laboratories, Calif.).
The ras-responsive reporter gene pRD053 was used to detect ras expression. [Owen et al., Proc. Natl. Acad. Sci. U.S.A., 87, 3866 (1990).

[7] = system: ras expression in HeLa cells (wild-type H-ras codon-12); test: Northern blot analysis of ras expression in HeLa cells; type: cell-based, human
Experimental: as §1, with “The human epithelioid carcinoma cell line HeLa 229 was obtained from the American Type Culture Collection (Bethesda, Md.). HeLa cells were maintained as monolayers on 6-well plates in Dulbecco's Modified Eagle's medium (DMEM) supplemented with 10 fetal bovine serum and 100 U/ml penicillin. Treatment with oligonucleotide and isolation of RNA were essentially as described above for T24 cells.” left out
Northern hybridization: 10 μg of each RNA was electrophoresed on a 1.2% agarose/formaldehyde gel and transferred overnight to GeneBind 45 nylon membrane (Pharmacia LKB, Piscataway, N.J.) using standard methods. […] Blots were autoradiographed and the intensity of signal was quantitated using an ImageQuant PhosphorImager (Molecular Dynamics, Sunnyvale, Calif.). […]

[8] = system: crude HeLa cellular extracts

3985 (CCACACCGACGGCGCCC; 2'-O-methyl wings, phosphorothioate, wing lengths not given here) [Oligonucleotide 3985]
inhibition of ras-luciferase activity [1]: greatest inhibition
inhibition of ras expression / decrease of ras mRNA [2]: 95% and 81%
inhibition of cell proliferation [3]: 82%
pIC50 [3]: 7.21

7854 (TTCTCCTCCTCCCCTGGCAG; sugars from the 5' end m12 d8, all phosphorothioate, T or U not given here) [Oligonucleotide 7854]
inhibition of c-raf mRNA expression [4]: > 70%

7856 (dT*dT*dC*dT*dC*dG*dC*dC*dC*dG*dC*dT*dC*dC*dT*dC*dC*dT*dC*dC) [Oligonucleotide 7856]
inhibition of c-raf mRNA expression [4]: > 70%

CdCdAd CdAdCd CdGdAd CdGdGd CdGdCd CdCd [Oligonucleotide 2570, reference compound]
inhibition of ras-luciferase activity [1]: dose-dependent inhibition of ras-luciferase activity
selectivity toward the mutant form of ras-luciferase as compared to the normal form [1]: approximate threefold selectivity
Tm (° C.) [5]: 6 °C
pIC50 [6]: 6.82
inhibition of ras expression / decrease of ras mRNA [2]: 82%
inhibition of ras expression in T24 cells [2]: inhibited ras expression in T24 cells; also recorded: decreased ras mRNA levels in T24 cells
inhibition of ras expression in HeLa cells [7]: did not inhibit ras expression in HeLa cells
inhibition of T24 cell proliferation relative to inhibition of HeLa cells ([3]; 100 nM oligonucleotide concentration): four times as severe
inhibition of cell proliferation [3]: 61%
pIC50 [3]: 7.01
degradation in HeLa cell extract [8]: no degradation after 5 hours

T C C G T C AT C G C T C C T C A G G G [Oligonucleotide 2503]
inhibition of ras expression / decrease of ras mRNA [2]: 71%
inhibition of ras expression in T24 cells [2]: inhibited ras expression in T24 cells
inhibition of ras expression in HeLa cells [7]: inhibited ras expression in HeLa cells

TCCCGCCTGTGACATGCATT (sugars from the 5' end m7 d6 m7, all phosphorothioate, T or U not given here) [Oligonucleotide 6720]
inhibition of c-raf mRNA expression [4]: greater than 70%

TCCTCCTCCCCGCGGCGGGT (sugars from the 5' end m11 d9, all phosphorothioate, T or U not given here) [Oligonucleotide 7848]
inhibition of c-raf mRNA expression [4]: > 70%
